The results in this text go back to patent publication US4349545A, “Novel erythromycin a derivatives” (Roussel Uclaf, priority 1980, dated 1982).

Assay [1] relates to Staphylococcus aureus exp. n° 54 146. As to the kind of experiment: serial dilution liquid medium MIC, Staphylococcus aureus exp. n° 54 146. The assay is classed as cell-based. Conditions: Staphylococcus aureus exp. 54 146; 24 hours at 37° C.; read-out: minimum inhibiting concentration (MIC). The method, then: (§1) The method was a serial dilution of liquid medium test wherein a series of tubes were prepared containing the same amount of sterile nutritive medium and increasing amounts of the test product was distributed in each tube. The tubes were then seeded with a bacterial strain and incubated for 24 hours in an oven at 37° C. The degree of inhibition was determined by transillumination to determine the minimum inhibiting concentration (MIC) express in μg/ml and the results are reported in the following Tables.

Assay [2] relates to Streptococcus faecalis 5435. Put plainly: serial dilution liquid medium MIC, Streptococcus faecalis 5435. The assay is classed as cell-based. The following applies: Enterococcus faecalis, 24 hours at 37° C., read-out: minimum inhibiting concentration (MIC). On the procedure: as §1
In assay [3] the test system is Staphylococcus aureus 1061. Put plainly: serial dilution liquid medium MIC, Staphylococcus aureus 1061 pen-sensibles. Type of assay: cell-based. Conditions: 24 hours at 37° C., read-out: minimum inhibiting concentration (MIC). The method, then:
as §1

The subject of assay [4] is Streptococcus faecalis 5432. Put plainly: serial dilution liquid medium MIC, Streptococcus faecalis 5432. The following applies: Enterococcus faecalis, 24 hours at 37° C., read-out: minimum inhibiting concentration (MIC). The assay is classed as cell-based. The method, then: as §1
Assay [5] deals with Staphylococcus aureus UC 1128. Put plainly: serial dilution liquid medium MIC, Staphylococcus aureus UC 1128 pen-resistant. Type of assay: cell-based. Conditions: UC1128; Staphylococcus aureus UC 1128 pen-resistant; 24 hours at 37° C.; read-out: minimum inhibiting concentration (MIC). The method, then:
as §1

The subject of assay [6] is Streptococcus pyogenes A 561. Put plainly: serial dilution liquid medium MIC, Streptococcus pyogenes A 561. The assay is classed as cell-based. The following applies: A561, 24 hours at 37° C., read-out: minimum inhibiting concentration (MIC). On the procedure: as §1
The test system of assay [7] is Streptococcus faecalis 99 F 74. Put plainly: serial dilution liquid medium MIC, Streptococcus faecalis 99 F 74. The following applies: Enterococcus faecalis, 99F74, 24 hours at 37° C., read-out: minimum inhibiting concentration (MIC). The assay is classed as cell-based. On the procedure: as §1
Assay [8] has as its system Staphylococcus aureus No. 54,146. As to the kind of experiment: In vivo activity in mice experimentally infected with Staphylococcus aureus No. 54,146. The following applies: groups of 10 mice. On the procedure:
The test was effected with the compounds of the invention and erythromycin as a reference on groups of 10 mice weighing about 21 g experimentally infected with Staphylococcus aureus No. 54,146 by intraperitoneal administration of 0.5 ml of a 22 hour culture of the said organism in bouillon with a pH of 7 diluted to 1/6 with physiological water. The test compounds were orally administrated to the mice 1,5 and 24 hours after the infection and the mortality on the 8th day was determined.

The mark [9] stands for this setting: dose 0,75mg oral, 1,5 and 24 hours after infection.
Where [10] appears, read: dose 0,5mg oral, 1,5 and 24 hours after infection.
The mark [11] stands for this setting: dose 0,25mg oral, 1,5 and 24 hours after infection.

In brackets after ≈: the same amount, converted by molar mass.

As for `CC[C@H]1OC(=O)[C@H](C)[C@@H](O[C@H]2C[C@@](C)(OC)[C@@H](O)[C@H](C)O2)[C@H](C)[C@@H](O[C@@H]2O[C@H](C)C[C@H](N(C)C)[C@H]2O)[C@](C)(O)C[C@@H](C)C(=NOCCC#N)[C@H](C)[C@@H](O)[C@]1(C)O` [Example 14, 9-[0-(2-cyanoethyl)-oxime] of erythromycin], the MIC in assay [1] was 0.4 µg/mL (≈ 0.499 µM); in assay [2] it was 0.4 µg/mL (≈ 0.499 µM); in assay [3], 0.2 µg/mL (≈ 0.249 µM); in assay [4] it was 0.1 µg/mL (≈ 0.125 µM); in assay [5] it was 0.4 µg/mL (≈ 0.499 µM); in assay [6], 0.02 µg/mL (≈ 0.0249 µM). For the same compound, the MIC in assay [7] came out at 0.05 µg/mL (≈ 0.0623 µM).
On to `CC[C@H]1OC(=O)[C@H](C)[C@@H](O[C@H]2C[C@@](C)(OC)[C@@H](O)[C@H](C)O2)[C@H](C)[C@@H](O[C@@H]2O[C@H](C)C[C@H](N(C)C)[C@H]2O)[C@](C)(O)C[C@@H](C)C(=NOCCN2CCCCC2)[C@H](C)[C@@H](O)[C@]1(C)O` [Example 34, 9-[O-(2{-piperidin-1-yl}-ethyl)-oxime] of erythromycin], for which the MIC in assay [1] is 0.6 µg/mL (≈ 0.698 µM); in assay [2] it was 0.2 µg/mL (≈ 0.233 µM); in assay [3], 0.4 µg/mL (≈ 0.465 µM); in assay [4] it was 0.1 µg/mL (≈ 0.116 µM); in assay [5], 0.6 µg/mL (≈ 0.698 µM); in assay [6] it was no more than 0.01 µg/mL. In addition, the MIC in assay [7] was 0.05 µg/mL (≈ 0.0581 µM).
On to `CC[C@H]1OC(=O)[C@H](C)[C@@H](O[C@H]2C[C@@](C)(OC)[C@@H](O)[C@H](C)O2)[C@H](C)[C@@H](O[C@@H]2O[C@H](C)C[C@H](N(C)C)[C@H]2O)[C@](C)(O)C[C@@H](C)C(=NOCC(O)CN(C)C)[C@H](C)[C@@H](O)[C@]1(C)O` (stereo partly drawn) [Example 48, 9-[0-(3-dimethylamino-2-hydroxy-propyl)-oxime] of erythromycin], for which the MIC in assay [1] was found to be 0.6 µg/mL (≈ 0.706 µM); in assay [2], 1 µg/mL (≈ 1.18 µM); in assay [3] it was 0.4 µg/mL (≈ 0.471 µM); in assay [4], 0.4 µg/mL (≈ 0.471 µM); in assay [5] it was 0.6 µg/mL (≈ 0.706 µM); in assay [6], 0.05 µg/mL (≈ 0.0588 µM). Also, in assay [7], the MIC is 0.1 µg/mL (≈ 0.118 µM).
`CC[C@H]1OC(=O)[C@H](C)[C@@H](O[C@H]2C[C@@](C)(OC)[C@@H](O)[C@H](C)O2)[C@H](C)[C@@H](O[C@@H]2O[C@H](C)C[C@H](N(C)C)[C@H]2O)[C@](C)(O)C[C@@H](C)C(=NOCOCCN)[C@H](C)[C@@H](O)[C@]1(C)O` [Example 24, 9-[0-{(2-aminoethoxy}-methyl)-oxime] of erythromycin]: the MIC was 0.4 µg/mL (≈ 0.487 µM) in assay [1]; 0.2 µg/mL (≈ 0.243 µM) in assay [2]; 0.1 µg/mL (≈ 0.122 µM) in assay [3]; 0.05 µg/mL (≈ 0.0608 µM) in assay [4]; 0.4 µg/mL (≈ 0.487 µM) in assay [5]; no more than 0.01 µg/mL in assay [6]. For the same compound, the MIC in assay [7] was 0.1 µg/mL (≈ 0.122 µM).
For `CC[C@H]1OC(=O)[C@H](C)[C@@H](O[C@H]2C[C@@](C)(OC)[C@@H](O)[C@H](C)O2)[C@H](C)[C@@H](O[C@@H]2O[C@H](C)C[C@H](N(C)C)[C@H]2O)[C@](C)(O)C[C@@H](C)C(=O)[C@H](C)[C@@H](O)[C@]1(C)O` [Erythromycin, erythromycin], the “No. of mice living on the 8th day” value worked out at 5 mice in assay [8] (setting [9]); 9 mice in assay [8] (dose 1mg oral, 1,5 and 24 hours after infection); 10 mice in assay [8] (dose 2mg oral, 1,5 and 24 hours after infection); 9 mice in assay [8] (dose 1,5mg oral, 1,5 and 24 hours after infection).
For the compound `CC[C@H]1OC(=O)[C@H](C)[C@@H](O[C@H]2C[C@@](C)(OC)[C@@H](O)[C@H](C)O2)[C@H](C)[C@@H](O[C@@H]2O[C@H](C)C[C@H](N(C)C)[C@H]2O)[C@](C)(O)C[C@@H](C)C(=NOCCN2CCN(C)CC2)[C@H](C)[C@@H](O)[C@]1(C)O` [Example 43, 9-[O-(2-{4-methyl-piperazino-1-yl}-ethyl)-oxime] of erythromycin], the MIC was 1 µg/mL (≈ 1.14 µM) in assay [1]; 0.4 µg/mL (≈ 0.457 µM) in assay [2]; 1 µg/mL (≈ 1.14 µM) in assay [3]; 0.2 µg/mL (≈ 0.229 µM) in assay [4]; 2 µg/mL (≈ 2.29 µM) in assay [5]; no more than 0.01 µg/mL in assay [6]. In addition, the MIC in assay [7] stood at 0.05 µg/mL (≈ 0.0571 µM).
Take `CCSCC(O)CON=C1[C@H](C)C[C@@](C)(O)[C@H](O[C@@H]2O[C@H](C)C[C@H](N(C)C)[C@H]2O)[C@@H](C)[C@H](O[C@H]2C[C@@](C)(OC)[C@@H](O)[C@H](C)O2)[C@@H](C)C(=O)O[C@H](CC)[C@@](C)(O)[C@H](O)[C@H]1C` (stereo partly drawn) [Example 16, 9-[0-(3-ethylthio-2-hydroxy-propyl)-oxime] of erythromycin]: the MIC in assay [1] is 0.4 µg/mL (≈ 0.461 µM); in assay [2] it was 1 µg/mL (≈ 1.15 µM); in assay [3], 0.4 µg/mL (≈ 0.461 µM); in assay [4], 0.2 µg/mL (≈ 0.231 µM); in assay [5] it was 0.6 µg/mL (≈ 0.692 µM); in assay [6] it was 0.05 µg/mL (≈ 0.0577 µM). Moreover, the MIC in assay [7] is 0.1 µg/mL (≈ 0.115 µM).
Consider `CC[C@H]1OC(=O)[C@H](C)[C@@H](O[C@H]2C[C@@](C)(OC)[C@@H](O)[C@H](C)O2)[C@H](C)[C@@H](O[C@@H]2O[C@H](C)C[C@H](N(C)C)[C@H]2O)[C@](C)(O)C[C@@H](C)C(=NOCCOCCO)[C@H](C)[C@@H](O)[C@]1(C)O` [Example 17, 9-[0-(2-{2-hydroxyethoxy}-ethyl)-oxime] of erythromycin], for which the MIC stood at 0.4 µg/mL (≈ 0.478 µM) in assay [1]; 0.6 µg/mL (≈ 0.717 µM) in assay [2]; 0.4 µg/mL (≈ 0.478 µM) in assay [3]; 0.1 µg/mL (≈ 0.119 µM) in assay [4]; 0.6 µg/mL (≈ 0.717 µM) in assay [5]; 0.05 µg/mL (≈ 0.0597 µM) in assay [6]. Besides, the MIC in assay [7] was determined as 0.1 µg/mL (≈ 0.119 µM).
For the compound `CC[C@H]1OC(=O)[C@H](C)[C@@H](O[C@H]2C[C@@](C)(OC)[C@@H](O)[C@H](C)O2)[C@H](C)[C@@H](O[C@@H]2O[C@H](C)C[C@H](N(C)C)[C@H]2O)[C@](C)(O)C[C@@H](C)C(=NOCCN(CC)CC)[C@H](C)[C@@H](O)[C@]1(C)O` [Example 31, 9-[0-(2-diethylaminoethyl)-oxime] of erythromycin], the MIC in assay [1] worked out at 1 µg/mL (≈ 1.18 µM); in assay [3] it was 0.5 µg/mL (≈ 0.59 µM); in assay [4], 0.1 µg/mL (≈ 0.118 µM); in assay [5] it was 1 µg/mL (≈ 1.18 µM); in assay [6] it was 0.02 µg/mL (≈ 0.0236 µM); in assay [7] it was 0.1 µg/mL (≈ 0.118 µM). Also, the “No. of mice living on the 8th day” value stood at 10 mice in assay [8] (setting [10]) and 4 mice in assay [8] (setting [11]).
In the case of `CC[C@H]1OC(=O)[C@H](C)[C@@H](O[C@H]2C[C@@](C)(OC)[C@@H](O)[C@H](C)O2)[C@H](C)[C@@H](O[C@@H]2O[C@H](C)C[C@H](N(C)C)[C@H]2O)[C@](C)(O)C[C@@H](C)C(=NOCCN(C(C)C)C(C)C)[C@H](C)[C@@H](O)[C@]1(C)O` [Example 41, 9-[O-(2-disopropylamino-ethyl)-oxime] of erythromycin], the MIC in assay [1] turned out to be 1 µg/mL (≈ 1.14 µM); in assay [3], 0.5 µg/mL (≈ 0.571 µM); in assay [4] it was 0.2 µg/mL (≈ 0.228 µM); in assay [5] it was 1 µg/mL (≈ 1.14 µM); in assay [6], 0.05 µg/mL (≈ 0.0571 µM); in assay [7] it was 0.2 µg/mL (≈ 0.228 µM). Further, the “No. of mice living on the 8th day” value was found to be 10 mice in assay [8] (setting [10]) and 9 mice in assay [8] (setting [11]).
With `CC[C@H]1OC(=O)[C@H](C)[C@@H](O[C@H]2C[C@@](C)(OC)[C@@H](O)[C@H](C)O2)[C@H](C)[C@@H](O[C@@H]2O[C@H](C)C[C@H](N(C)C)[C@H]2O)[C@](C)(O)C[C@@H](C)C(=NOCOCCCl)[C@H](C)[C@@H](O)[C@]1(C)O` [Example 21, 9-[0-{(2-chloroethoxy)-methyl}-oxime] of erythromycin], the MIC was 0.2 µg/mL (≈ 0.238 µM) in assay [1]; 0.2 µg/mL (≈ 0.238 µM) in assay [3]; 0.1 µg/mL (≈ 0.119 µM) in assay [4]; 0.2 µg/mL (≈ 0.238 µM) in assay [5]; 0.02 µg/mL (≈ 0.0238 µM) in assay [6]; 0.1 µg/mL (≈ 0.119 µM) in assay [7]. The “No. of mice living on the 8th day” value in assay [8] (setting [10]) is given as 6 mice; in assay [8] (setting [11]) it was 0 mice; in assay [8] (setting [9]), 10 mice.
